The values that follow are results of earlier work, collected in the CATMoS acute toxicity set (Mansouri et al. 2021).

The data set can be described thus: rat acute oral toxicity. The conditions noted are these: in vivo.
For the compound `CC1OCCO1`, the LD50 is 2900 mg/kg.

Consider `CC(C)(N1CC1C#N)N1CC1C(N)=O` (stereo not drawn), for which the LD50 was 3100 mg/kg.

Take `CNC(=O)c1ccc(Cl)c(S(=O)(=O)NC)c1`: the LD50 was 1400 mg/kg.

For the compound `COC(C)CO` (stereo not drawn), the LD50 is 5710 mg/kg.

Turning to `N#Cc1ccc(F)cc1C#N`, the LD50 was 14 mg/kg.

As for `CCCCN(CCCC)SN(C)C(=O)ON=CC(C)(C)SC`, the LD50 was 12.5 mg/kg.

Consider `CC(Cl)CCC(C)Cl` (stereo not drawn), for which the LD50 is 4000 mg/kg.

As to `N#CCCN(CCN)CCN`, the LD50 was 4550 mg/kg.

As for `CC(C)CNC(=O)CF`, the LD50 was 42 mg/kg.

As for `Cc1nn(-c2cc(NS(C)(=O)=O)c(Cl)cc2Cl)c(=O)n1C(F)F`, the LD50 was 2860 mg/kg.

For `CCN(CCCCCCOC(=O)c1ccc(OC)c(OC)c1)C1CCc2cc(OC)c(OC)cc2C1` (stereo not drawn), the LD50 was 561 mg/kg.

As for `CCc1c(C)nc2c(C)cccn2c1=O`, the LD50 is 820 mg/kg.

Regarding `CN(C)c1ccc(N=Nc2cccc(Br)c2)cc1`, the LD50 is 13000 mg/kg.

On to `CC(=O)Nc1ccc(S(=O)(=O)Nc2cc(C)on2)cc1`, for which the LD50 was 8400 mg/kg.

`C1CCCNCC1`: the LD50 is 20.7 mg/kg.

For the compound `CCN(CCNS(C)(=O)=O)c1ccc(N)c(C)c1`, the LD50 was 400 mg/kg.

`COc1c(C)c2c(c(O)c1C/C=C(\C)CCC(=O)O)C(=O)OC2`: the LD50 was 352 mg/kg.

As for `C=CC(=O)N(C)C`, the LD50 is 316 mg/kg.

With `C(=Nc1ccc(N=Cc2ccco2)cc1)c1ccco1`, the LD50 was 1220 mg/kg.

With `C1CN2CCC1CC2`, the LD50 is 81.2 mg/kg.

For `CNc1ccc(NCCO)c2c1C(=O)c1ccccc1C2=O`, the LD50 is 1340 mg/kg.

Consider `CC(C)CCOC=O`, for which the LD50 was 9840 mg/kg.

As for `ClCC(Cl)(Cl)C(Cl)Cl`, the median lethal dose (LD50) was 819 mg/kg.

Turning to `COc1cc2nc(N3CCC(N(C)C(=O)c4ccccc4)CC3)nc(N)c2cc1OC`, the LD50 is 1000 mg/kg.

Take `CN1C(=O)OC(C)(C)C1=O`: the LD50 is 2140 mg/kg.

Turning to `CC(CC1c2ccccc2CCc2ccccc21)CN(C)C` (stereo not drawn), the LD50 was 700 mg/kg.

As for `CC1(C)S[C@@H]2[C@H](NC(=O)C(C(=O)Oc3ccccc3)c3ccccc3)C(=O)N2[C@H]1C(=O)O` (stereo partly drawn), the LD50 was 10000 mg/kg.

As for `CN(SSN(C)C(=O)ON=C1CSCCS1)C(=O)ON=C1CSCCS1`, the LD50 is 160 mg/kg.

Take `NCC1CCC=CO1` (stereo not drawn): the LD50 is 1000 mg/kg.

Consider `CCOP(=O)(NC)Oc1ccc(SC)c(C)c1` (stereo not drawn), for which the LD50 was 5 mg/kg.

With `Cc1c(N)nc(C)c2c1[nH]c1ccccc12`, the LD50 is 100 mg/kg.

In the case of `CCOC(C1=NCCCN1)c1cccc(F)c1` (stereo not drawn), the LD50 was 1000 mg/kg.

In the case of `O=S(=O)(Oc1ccc(Cl)cc1Cl)c1ccccc1`, the LD50 is 1000 mg/kg.

As for `O=CC1CCC=CO1` (stereo not drawn), the LD50 was 4920 mg/kg.

In the case of `CCC(=O)C(C)=O`, the LD50 was 3000 mg/kg.

As to `Clc1cccc(SCc2nn[nH]n2)c1`, the LD50 is 2200 mg/kg.

Consider `COC1CCC(OC2C(C)C(O)(C(C)C(=O)O)OC(CC3CC(OC)C(C)C4(O3)OC(C)(C3CCC(C5CCC(C6OC(C)(O)C(C)C(OC)C6C)O5)O3)C(OC)C4C)C2(C)OC)OC1C` (stereo not drawn), for which the LD50 was 7 mg/kg.

With `CN(C)C(=O)CCCOC(=O)C(C)(C)Oc1ccc(Cl)cc1`, the LD50 was 2480 mg/kg.

Take `C=C(C)C(=O)OC(=O)COC(C)C`: the 50% lethal dose (LD50) was 9000 mg/kg.

With `CC(=O)NNC(=O)c1ccccn1`, the LD50 was 673 mg/kg.

With `CCOP(=O)(OCC)Oc1ccc(S(C)(=O)=O)c(C)c1`, the LD50 is 8.13 mg/kg.

`COP(=S)(OC)SCCSc1ccc(Cl)cc1`: the LD50 is 100 mg/kg.

Regarding `NC1=NC(C(F)(F)F)(C(F)(F)F)NC1(C(F)(F)F)C(F)(F)F`, the LD50 was 19 mg/kg.

For `CC(c1ccc(C(F)(F)F)nc1)S(C)(=O)=NC#N` (stereo not drawn), the LD50 was 1000 mg/kg.

For `NC(=O)CCCCC1CCSS1` (stereo not drawn), the LD50 is 1980 mg/kg.

On to `CNC(=O)ON=C1SCSC1C` (stereo not drawn), for which the LD50 is 0.88 mg/kg.

Consider `COCC(=O)N(c1c(C)cccc1C)N1CCOC1=O`, for which the LD50 was 1860 mg/kg.

Turning to `O=C1CCc2cc(C=CCN3CCN(c4ccc(Cl)cc4)CC3)ccc2N1`, the LD50 was 500 mg/kg.

On to `O[C@H](c1cc(-c2ccc(C(F)(F)F)cc2)nc(C(F)(F)F)c1)[C@H]1CCCCN1`, for which the LD50 is 518 mg/kg.

Consider `COc1cc(C(=O)c2ccc(Cl)cc2)cc(OC)c1OCCN1CCOCC1`, for which the LD50 was 1290 mg/kg.

On to `CCOP(=S)(OCC)Oc1cc2ccccc2oc1=O`, for which the LD50 is 13 mg/kg.

For the compound `CC(=O)Oc1ccc(C#N)cc1`, the LD50 is 500 mg/kg.

As for `COc1cccc(C(=O)NC2CC3CCC(C2)N3Cc2ccccc2)c1OC` (stereo not drawn), the LD50 was 147 mg/kg.

On to `COC(=O)[C@H]1[C@H]2C[C@@H]3c4[nH]c5cc(OC)ccc5c4CCN3C[C@H]2C[C@@H](OC(=O)C=Cc2cc(OC)c(OC)c(OC)c2)[C@@H]1OC`, for which the LD50 is 1000 mg/kg.

As for `CC(=O)OC(C)=O`, the LD50 was 1780 mg/kg.

Take `CN(CCN(C)N=O)N=O`: the LD50 is 125 mg/kg.

`Cc1ccccc1N1C(=O)C=CC1=O`: the LD50 was 250 mg/kg.

With `CCC(O)CC`, the LD50 was 1870 mg/kg.
